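At the GI50, growth is halved. The concentration for full growth arrest is given as TGI.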
Tests used:
Experiment in all cases: growth of human tumour cells (NCI), 384-well format
786-0 renal = system: 786-0 renal
A498 renal = system: A498 renal
A549 NSCLC = system: A549 NSCLC
ACHN renal = system: ACHN renal
BT-549 breast = system: BT-549 breast
CAKI-1 renal = system: CAKI-1 renal
CCRF-CEM leukemia = system: CCRF-CEM leukemia
COLO 205 colon = system: COLO 205 colon
DU-145 prostate = system: DU-145 prostate
EKVX NSCLC = system: EKVX NSCLC
HCC-2998 colon = system: HCC-2998 colon
HCT-15 colon = system: HCT-15 colon
HL-60(TB) leukemia = system: HL-60(TB) leukemia
HOP-62 NSCLC = system: HOP-62 NSCLC
HOP-92 NSCLC = system: HOP-92 NSCLC
HS 578T breast = system: HS 578T breast
HT29 colon = system: HT29 colon
IGROV1 ovarian = system: IGROV1 ovarian
KM12 colon = system: KM12 colon
M14 melanoma = system: M14 melanoma
MALME-3M melanoma = system: MALME-3M melanoma
MCF7 breast = system: MCF7 breast
MDA-MB-231 breast = system: MDA-MB-231 breast
MDA-MB-435 melanoma = system: MDA-MB-435 melanoma
MDA-MB-468 breast = system: MDA-MB-468 breast
MOLT-4 leukemia = system: MOLT-4 leukemia
NCI-H226 lung = system: NCI-H226 lung
NCI-H23 lung = system: NCI-H23 lung
NCI-H322M lung = system: NCI-H322M lung
NCI-H460 NSCLC = system: NCI-H460 NSCLC
NCI-H522 lung = system: NCI-H522 lung
NCI/ADR-RES ovarian = system: NCI/ADR-RES ovarian
OVCAR-3 ovarian = system: OVCAR-3 ovarian
OVCAR-4 ovarian = system: OVCAR-4 ovarian
OVCAR-5 ovarian = system: OVCAR-5 ovarian
OVCAR-8 ovarian = system: OVCAR-8 ovarian
PC-3 prostate = system: PC-3 prostate
RPMI-8226 leukemia = system: RPMI-8226 leukemia
RXF 393 renal = system: RXF 393 renal
SF-268 CNS = system: SF-268 CNS
SF-295 CNS = system: SF-295 CNS
SF-539 CNS = system: SF-539 CNS
SK-MEL-2 melanoma = system: SK-MEL-2 melanoma
SK-MEL-28 melanoma = system: SK-MEL-28 melanoma
SK-MEL-5 melanoma = system: SK-MEL-5 melanoma
SK-OV-3 ovarian = system: SK-OV-3 ovarian
SN12C renal = system: SN12C renal
SNB-19 CNS = system: SNB-19 CNS
SNB-75 CNS = system: SNB-75 CNS
SR leukemia = system: SR leukemia
SW-620 colon = system: SW-620 colon
T-47D breast = system: T-47D breast
TK-10 renal = system: TK-10 renal
U251 glioblastoma = system: U251 glioblastoma
UACC-257 melanoma = system: UACC-257 melanoma
UACC-62 melanoma = system: UACC-62 melanoma

CC1(C)CC(O)CC(C)(C)N1O
GI50 (786-0 renal): > 100 µM
TGI (786-0 renal): > 100 µM
GI50 (A498 renal): > 100 µM
TGI (A498 renal): > 100 µM
GI50 (A549 NSCLC): > 100 µM
TGI (A549 NSCLC): > 100 µM
GI50 (ACHN renal): > 100 µM
TGI (ACHN renal): > 100 µM
GI50 (BT-549 breast): > 100 µM
TGI (BT-549 breast): > 100 µM
GI50 (CAKI-1 renal): > 100 µM
TGI (CAKI-1 renal): > 100 µM
GI50 (CCRF-CEM leukemia): 47.2 µM
TGI (CCRF-CEM leukemia): > 100 µM
GI50 (COLO 205 colon): > 100 µM
TGI (COLO 205 colon): > 100 µM
GI50 (DU-145 prostate): > 100 µM
TGI (DU-145 prostate): > 100 µM
GI50 (EKVX NSCLC): > 100 µM
TGI (EKVX NSCLC): > 100 µM
GI50 (HCC-2998 colon): > 100 µM
TGI (HCC-2998 colon): > 100 µM
GI50 (HCT-15 colon): > 100 µM
TGI (HCT-15 colon): > 100 µM
GI50 (HL-60(TB) leukemia): > 100 µM
TGI (HL-60(TB) leukemia): > 100 µM
GI50 (HOP-62 NSCLC): > 100 µM
TGI (HOP-62 NSCLC): > 100 µM
GI50 (HOP-92 NSCLC): > 100 µM
TGI (HOP-92 NSCLC): > 100 µM
GI50 (HS 578T breast): > 100 µM
TGI (HS 578T breast): > 100 µM
GI50 (HT29 colon): > 100 µM
TGI (HT29 colon): > 100 µM
GI50 (IGROV1 ovarian): > 100 µM
TGI (IGROV1 ovarian): > 100 µM
GI50 (KM12 colon): > 100 µM
TGI (KM12 colon): > 100 µM
GI50 (M14 melanoma): > 100 µM
TGI (M14 melanoma): > 100 µM
GI50 (MALME-3M melanoma): > 100 µM
TGI (MALME-3M melanoma): > 100 µM
GI50 (MCF7 breast): > 100 µM
TGI (MCF7 breast): > 100 µM
GI50 (MDA-MB-231 breast): > 100 µM
TGI (MDA-MB-231 breast): > 100 µM
GI50 (MDA-MB-435 melanoma): > 100 µM
TGI (MDA-MB-435 melanoma): > 100 µM
GI50 (MDA-MB-468 breast): 29.8 µM
TGI (MDA-MB-468 breast): > 100 µM
GI50 (MOLT-4 leukemia): 44.5 µM
TGI (MOLT-4 leukemia): > 100 µM
GI50 (NCI-H226 lung): > 100 µM
TGI (NCI-H226 lung): > 100 µM
GI50 (NCI-H23 lung): > 100 µM
TGI (NCI-H23 lung): > 100 µM
GI50 (NCI-H322M lung): > 100 µM
TGI (NCI-H322M lung): > 100 µM
GI50 (NCI-H460 NSCLC): > 100 µM
TGI (NCI-H460 NSCLC): > 100 µM
GI50 (NCI-H522 lung): > 100 µM
TGI (NCI-H522 lung): > 100 µM
GI50 (NCI/ADR-RES ovarian): > 100 µM
TGI (NCI/ADR-RES ovarian): > 100 µM
GI50 (OVCAR-3 ovarian): 71.7 µM
TGI (OVCAR-3 ovarian): > 100 µM
GI50 (OVCAR-4 ovarian): 19.9 µM
TGI (OVCAR-4 ovarian): > 100 µM
GI50 (OVCAR-5 ovarian): > 100 µM
TGI (OVCAR-5 ovarian): > 100 µM
GI50 (OVCAR-8 ovarian): > 100 µM
TGI (OVCAR-8 ovarian): > 100 µM
GI50 (PC-3 prostate): > 100 µM
TGI (PC-3 prostate): > 100 µM
GI50 (RPMI-8226 leukemia): > 100 µM
TGI (RPMI-8226 leukemia): > 100 µM
GI50 (RXF 393 renal): > 100 µM
TGI (RXF 393 renal): > 100 µM
GI50 (SF-268 CNS): > 100 µM
TGI (SF-268 CNS): > 100 µM
GI50 (SF-295 CNS): > 100 µM
TGI (SF-295 CNS): > 100 µM
GI50 (SF-539 CNS): > 100 µM
TGI (SF-539 CNS): > 100 µM
GI50 (SK-MEL-2 melanoma): > 100 µM
TGI (SK-MEL-2 melanoma): > 100 µM
GI50 (SK-MEL-28 melanoma): > 100 µM
TGI (SK-MEL-28 melanoma): > 100 µM
GI50 (SK-MEL-5 melanoma): > 100 µM
TGI (SK-MEL-5 melanoma): > 100 µM
GI50 (SK-OV-3 ovarian): > 100 µM
TGI (SK-OV-3 ovarian): > 100 µM
GI50 (SN12C renal): > 100 µM
TGI (SN12C renal): > 100 µM
GI50 (SNB-19 CNS): > 100 µM
TGI (SNB-19 CNS): > 100 µM
GI50 (SNB-75 CNS): > 100 µM
TGI (SNB-75 CNS): > 100 µM
GI50 (SR leukemia): > 100 µM
TGI (SR leukemia): > 100 µM
GI50 (SW-620 colon): > 100 µM
TGI (SW-620 colon): > 100 µM
GI50 (T-47D breast): > 100 µM
TGI (T-47D breast): > 100 µM
GI50 (TK-10 renal): > 100 µM
TGI (TK-10 renal): > 100 µM
GI50 (U251 glioblastoma): > 100 µM
TGI (U251 glioblastoma): > 100 µM
GI50 (UACC-257 melanoma): > 100 µM
TGI (UACC-257 melanoma): > 100 µM
GI50 (UACC-62 melanoma): > 100 µM
TGI (UACC-62 melanoma): > 100 µM
